Results published in patent US6171786A, “Methods for preventing multidrug resistance in cancer cells” (priority 1996, dated 2001).
Entries after “also recorded” stand apart in the source; their conditions may differ. Like-named read-outs stand apart in the source and are kept apart here.

Tests used:
[1] = system: MDR1 expression; assay: Inhibition of cytotoxic drug-induced MDR1 expression by protein kinase inhibitors (cDNA-PCR)
Procedure: (§1) Cells were plated in 6-well Falcon tissue culture plates at 3,300 cells per well, and incubated in the appropriate concentrations of drugs. Each of the protein kinase inhibitors to be tested were added at the appropriate final concentration 45 minutes prior to MDR1 induction by the addition of Ara-C or TPA, with the exception of herbimycin A, which was added 12 hours prior to Ara-C or TPA, and tyrphostins A25 and B46, which were each added 16 hours prior to MDR1 induction by the addition of Ara-C or TPA. Cells were incubated overnight (TPA) or for 10 hours (Ara-C) at 37° C./ 5% CO2 after the addition of the MDR1 inducing agents before harvesting for cDNA-PCR analysis.
In addition, the analysis of certain drugs imposed added requirements. For experiments using calphostin C, cells were incubated under direct white light illumination. For experiments using D,L-threo-sphingosine, the cell culture medium was pre-treated with the appropriate concentration of the drug for one hour at 37° C. with continuous gentle mixing. After this pretreatment, cells were resuspended in media supplemented with drug and incubated for 45 minutes as described above.
To further evaluate the capacity of protein kinase inhibitors to suppress MDR1 induction by cytotoxic drugs and PKC agonists, H-9 human T-cell leukemia cells were used in cDNA-PCR assays to examine induced MDR1 mRNA expression levels in the presence of protein kinase inhibitors.

[2] = system: PKC; conditions: in words; cited from earlier work
[3] = system: MRP expression; assay: Inhibition of MRP mRNA expression in H-9 cells (cDNA-PCR); format: cell-based, human; conditions: 100 nM
Procedure: Cells were plated in 6-well Falcon tissue culture plates at 3,300 cells per well, and incubated in the appropriate concentrations of drugs. Each of the protein kinase inhibitors to be tested were added at their appropriate final concentrations, and the cells then incubated for 10 hours at 37° C. under an atmosphere of 5% CO2.
PCR was performed using the following primers: […]
(where β2 M represents β2 microglobulin). PCR was performed for β2 M experiments under a regime consisting of 1 cycle comprising denaturation at 94° C. for 3 minutes, primer annealing at 60° C. for 30 seconds, and primer extension at 72° C. for 1 minute, followed by 19 cycles comprising denaturation at 94° C. for 30 seconds, primer annealing at 60° C. for 30 seconds, and primer extension at 72° C. for 1 minute, followed by a final cycle comprising denaturation at 94° C. for 30 seconds, primer annealing at 60° C. for 30 seconds, and primer extension at 72° C. for 5 minutes.
H-9 cells were used to analyze the effect of various protein kinase inhibitors on the expression of the multidrug resistance associated protein MRP (Grant et al., ibid.).

[4] = system: MDR1 expression (P-glycoprotein); assay: MDR1/P-glycoprotein expression in human cells treated with TPA, DOG, other agents (Rh123 accumulation, UIC2 staining, cDNA-PCR); format: cell-based
Procedure: KG1 cell line was maintained in Iscove's modified Dulbecco medium with 20% fetal calf serum (FCS) and 2 mM L-glutamine, 100 units/mL penicillin and 100 μg/mL streptomycin (GIBCO Laboratories, Grand Island, N.Y.).
(§2) PBL were treated with 1 ng/mL TPA; H9 and K562 cells with 10 ng/mL TPA; KG1a and KG1 cells with 100 ng/mL TPA and the other cell lines with 10 ng/mL TPA.
Mouse IgG2a isotype control antibody was obtained from Sigma. For staining of PBL with UIC2 mAb or isotype control, 10^6 cells were stained at 4° C. with 10 μg of the antibody for 30 minutes and, after two washes, stained for 30 minutes with 10 μg of FITC-conjugated goat anti-mouse IgG2a antibody (Fisher Scientific, Fairlawn, N.J.), diluted 1:2 with PBS plus 2% FCS. Cells were then washed twice with ice-cold PBS plus 2% FCS, stained with PI and kept on ice until analysis. Essentially the same protocol was used for staining of other cell types except that 2 μg of the secondary antibody were used per 10^6 cells. In some experiments, phycoerythrine (PE)-conjugated goat anti-mouse IgG2a was used as the secondary antibody; no PI was added in such cases.
(§3) (Commercially-available kits (for example, from GIBCO/BRL, Gaithersburg, Md.) can be advantageously modified for making cDNA using random hexamers.) PCR is then performed using the following primers: […]
(§4) (where β2 M represents β2 microglobulin). PCR was performed for β2 M experiments under a regime consisting of 1 cycle comprising denaturation at 94° C. for 3 minutes, primer annealing at 60° C. for 30 seconds, and primer extension at 72° C. for 1 minute, followed by 19 cycles comprising denaturation at 94° C. for 30 seconds, primer annealing at 60° C. for 30 seconds, and primer extension at 72° C. for 1 minute, followed by a final cycle comprising denaturation at 94° C. for 30 seconds, primer annealing at 60° C. for 30 seconds, and primer extension at 72° C. for 5 minutes. MDR1 cDNA sequences were amplified using the identical protocol as for β2 M, but extending the amplification from 19 cycles to 25 cycles. In addition, the cDNA-PCR amplification protocol contained the following modifications: (i) Taq DNA polymerase was added to the PCR mixtures after initial heating of the samples to 94° C. (ii) The yield of the β2 -microglobulin-specific band, obtained after 22-28 cycles of PCR, was used as the primary criterion for equalizing the starting amounts of the cDNA templates in different preparations, in order to account for differential RNA degradation in cells subjected to different types of treatment. ^32 P-labeled PCR products were detected by autoradiography.
A functional assay was used to detect changes in P-glycoprotein activity in human PBL treated with different agents that induce lymphoid differentiation or activation, based on flow cytometric analysis of cellular accumulation of Rh123, which is a P-glycoprotein-transported fluorescent mitochondrial dye. In this assay, cells expressing little or no P-glycoprotein stain brightly with Rh123, whereas cells with higher levels of P-glycoprotein activity appear Rh123-dull. […] Since the best-known cellular effect of TPA is the stimulation of PKC, DOG (a cell-permeable diacylglycerol and a physiological stimulant of PKC) was also tested to determine its effects on Rh123 accumulation in PBL.

[5] = system: MDR1 expression (P-glycoprotein); assay: MDR1/P-glycoprotein expression in mouse hematopoietic cell lines; format: cell-based
Procedure: as §2
Since PBL comprise a heterogeneous population of many different subtypes, a series of leukemia-derived clonal cells lines were tested for changes in P-glycoprotein expression after treatment with TPA.

[6] = system: MDR1 expression; assay: Inhibition of TPA- or DOG-induced MDR1 expression; format: cell-based, human; conditions: staurosporine 30 nM
Procedure: as §2, §1

[7] = system: tumor; conditions: nude mice; Meyer et al., 1989; cited from earlier work
[8] = system: MDR1 expression; assay: Induction of MDR1 expression by agents that increase intracellular Ca2+; format: cell-based, human; conditions: H9 cells; 10 μg/mL, 10 hrs
Procedure: H9 cells were seeded into each well of 6-well plates (10^5 cells/well in 3 mL of RPMI-1640 medium/10% fetal bovine serum/2 mM L-glutamine/100 U/mL penicillin and 100 μg/mL streptomycin). Experimental cultures were treated with either the calcium-specific ionophore A23187 or an inhibitor of Ca^2+ -dependent ATPase, thapsigargin. Cells were incubated with 10 μM A23187 or 10 μg/mL thapsigargin for 10 hrs at 37° C., 5% CO2 in a humidified atmosphere. Negative control cultures were incubated as above without the addition of either A23187 or thapsigargin.
After each incubation was complete, steady-state levels of MDR1- and β2 -microglobulin mRNA (internal standard) were determined by RT-PCR as described above in Example 4. PCR products were then analyzed in 7.5% polyacrylamide gel electrophoresis and autoradiographed. […] The absence of the MDR1-specific band and presence of the β2 -microglobulin specific band was consistent with the results on uninduced H9 cells shown above in Examples 4 and 5 and FIGS. 7A through 7F.

[9] = system: MDR1 expression (P-glycoprotein); assay: Induction of MDR1 expression by cytotoxic drugs (dye efflux, UIC2, cDNA-PCR); format: cell-based, human
Procedure: as §3, §4
In particular PKC is activated by treatment with Ara-C. Therefore, experiments were performed to test whether Ara-C, which is not transported by P-glycoprotein, would have any effect on P-glycoprotein function in K562 leukemia cells.
(§5) Also assayed was whether drug-induced MDR1 expression was maintained after cytotoxic drug treatment. […] At different times, MDR1 expression in the surviving cells was analyzed by dye efflux and immunofluorescence labeling with UIC2 (FIG. 3C) or by cDNA-PCR (FIG. 4E).

[10] = system: K562 cells
Procedure: FIG. 6A. Growth inhibition by vinblastine in untreated and Ara-C (ARA)- or Adriamycin (ADR)-treated cells. Cells were treated as in FIG. 3C and grown in the absence of drugs for six weeks. Vinblastine inhibition assay was carried out for 10 days.
FIG. 6B. Growth inhibition by vinblastine in untreated cells and Rh123-dull and Rh123-bright populations of Ara-C treated cells. […] One week after sorting, vinblastine inhibition assay was carried out for 7 days.
Cells were plated in duplicate in 96-well microtiter plates at 3,000 cells per well, and allowed to grow in increasing concentrations of different drugs.
as §5

[11] = system: tumor; conditions: cited from earlier work

Compound: N=C(N)NCCNS(=O)(=O)c1cccc2cnccc12 [HA1004]
- inhibition of MDR1 induction by cytotoxic drugs [1]: totally ineffective
- PKC inhibition [2]: inactive against PKC

Compound: CN[C@@H]1C[C@H]2O[C@@](C)([C@@H]1OC)n1c3ccccc3c3c4c(c5c6ccccc6n2c5c31)C(=O)NC4 [staurosporine]
- MRP expression [3]: capable of inhibiting MRP expression; also recorded: strongly inhibited
- P-glycoprotein expression, compound alone ([4]; KG1, KG1a (P-glycoprotein positive)): significant increase in P-glycoprotein expression
- induction of MDR1 expression, compound alone ([4]; P-glycoprotein-negative H9 cells): did not induce MDR1 expression
- P-glycoprotein expression ([4]; some P-glycoprotein-positive cell lines (human; mouse lines also used)): significantly increased P-glycoprotein expression
- P-glycoprotein expression, compound alone ([5]; mouse EL4 and LBRM 33 (P-glycoprotein positive)): significant increase in P-glycoprotein expression
- prevention of MDR1 induction by chemotherapeutic drugs [1]: prevent MDR1 induction
- inhibition of MDR1 induction by cytotoxic drugs ([1]; concentration not stated): capable of inhibiting MDR1 induction by cytotoxic drugs
- inhibition of DOG (diacylglycerol)-induced MDR1 expression ([6]; H9 cells / P-glycoprotein-negative cells): completely abolished MDR1 induction; also recorded: prevent MDR1 induction
- inhibition of TPA-induced MDR1 expression ([6]; H9 cells): completely abolished MDR1 induction; also recorded: completely inhibited TPA-induced MDR1 expression; also recorded: prevent MDR1 induction

Compound: CCCCCCCCCCCCCC(=O)O[C@@H]1[C@@H](C)[C@@]2(O)[C@@H](C=C(CO)C[C@]3(O)C(=O)C(C)=C[C@@H]23)[C@@H]2C(C)(C)[C@]12OC(C)=O [TPA, 12-o-tetradecanoylphorbol-13-acetate]
- increase of MDR1 expression after treatment ([4]; EJ bladder carcinoma cells): increase of MDR1 expression
- induction of MDR1 mRNA and P-glycoprotein ([4]; H9 cells): efficiently induced readily detectable levels of MDR1 expression
- P-glycoprotein expression after exposure ([4]; KG1 and KG1a cells (P-glycoprotein positive)): large increase in their P-glycoprotein expression
- increase of MDR1 expression after treatment ([4]; MCF-7 breast carcinoma cells): increase of MDR1 expression
- levels of P-glycoprotein on the cell surface (UIC2) ([4]; human PBL): markedly increased the levels of P-glycoprotein on the cell surface
- MDR1 gene expression ([4]; normal human PBL and leukemia/solid tumor cell lines): increase MDR1 gene expression
- P-glycoprotein expression after exposure ([5]; and LBRM 33 lymphoma): large increase in their P-glycoprotein expression

Compound: CO[C@@H]1[C@H](N(C)C(=O)c2ccccc2)C[C@H]2O[C@]1(C)n1c3ccccc3c3c4c(c5c6ccccc6n2c5c31)C(=O)NC4 [CGP 41 251]
- dose showing anti-tumor effect relative to MTD [7]: anti-tumor effect at one-tenth of their maximum tolerated doses

Compound: C/C=C(/C)C(=O)O[C@H]1C(C)=C2[C@H]([C@@H]1OC(=O)CCCCCCC)[C@@](C)(OC(C)=O)C[C@H](OC(=O)CCC)[C@@]1(O)[C@H]2OC(=O)[C@@]1(C)O [thapsigargin]
- MDR1 expression (RT-PCR) [8]: capable of inducing MDR1 gene expression; also recorded: a clear MDR1-specific band was detected

Compound: CC[C@]1(O)C[C@@H]2CN(CCc3c([nH]c4ccccc34)[C@@](C(=O)OC)(c3cc4c(cc3OC)N(C)[C@H]3[C@@](O)(C(=O)OC)[C@H](OC(C)=O)[C@]5(CC)C=CCN6CC[C@]43[C@@H]65)C2)C1 [vinblastine]
- MDR1 induction [9]: MDR1 induction, both at the mRNA and at the protein levels, was observed
- MDR1 mRNA expression [9]: induce MDR1 mRNA expression
- Rh123 or DiOC2(3) efflux by treated cells [9]: 3-10%
- increase in resistance [10]: 2-3 fold
- increase in the ID10 value [10]: 2-3 fold

Compound: CCN(CC)CCN1C(=O)c2c(c3c4cccc(Cl)c4n([C@@H]4O[C@H](CO)[C@@H](OC)[C@H](O)[C@H]4O)c3c3[nH]c4c(Cl)cccc4c23)C1=O [BMY 27557, 8-N-(diethylaminoethyl) rebeccamycin]
- optimal total i.p. dose ([11]; nine injections at 12 mg/kg/injection): 108 mg/kg
- optimal single i.p. dose ([11]; single dose): 64 mg/kg
